Type in all cases: functional, cell-based
One assay relates to HeLa. Put plainly: Cytotoxicity against human HeLa cells after 72 hrs by MTT assay.
The test system of another assay is SGC-7901. Put plainly: Cytotoxicity against human SGC7901 cells after 72 hrs by MTT assay. The note with it: SGC-7901, 72 h.
A further assay concerns MCF7. The assay is described as follows: Cytotoxicity against human MCF7 cells after 72 hrs by MTT assay. The conditions noted are these: MCF7, 72 h. For orientation: Tetrazolium assays rely on reduction of a dye to a coloured formazan, in cell work by metabolically active cells.
A short description of assay [1]: Cytotoxicity against human SMMC-7541 cells after 72 hrs by MTT assay.
The nature of assay [2]: Cytotoxicity against human A-5408 cells after 72 hrs by MTT assay.

By IC50 is commonly meant the concentration needed to halve the response being measured.

The structures appear in SMILES notation.

Regarding `CCCCCCCCCC[C@H](O)[C@@H]1CC[C@@H]([C@H](O)CC[C@@H](O)[C@@H]2CC[C@@H](CCCCCCCCCC3=C[C@@H](C)OC3=O)O2)O1` [Squamostatin-D], the IC50 in the assay with HeLa is 38 nM; in the assay with SGC-7901, 180 nM; in the assay on MCF7, 45 nM; in assay [1], 54 nM; in assay [2], 1.4 nM.

Regarding `COc1cccc2c1C(=O)c1c(O)c3c(c(O)c1C2=O)C[C@@](O)(C(=O)CO)C[C@@H]3O[C@H]1C[C@H](N)[C@H](O)[C@H](C)O1` [DOXORUBICIN], the IC50 came to 16 nM in the assay with HeLa, 13 nM with SGC-7901, 3.7 nM in assay [1] and 26 nM in assay [2].

Regarding `CCCCCCCCCCC(O)C1CCC(C2CCC(C(O)CCCCCCCC[C@H](O)CC3=C[C@@H](C)OC3=O)O2)O1` (some centres undefined) [ASIMICIN], the IC50 worked out at 27 nM in the assay with HeLa; 4.3 nM in the assay on SGC-7901; 13 nM with MCF7; 11 nM in assay [1]; 3.6 nM in assay [2].

Take `CCCCCCCCCCCC[C@@H](O)[C@H]1CC[C@H]([C@H](O)CCCCCC(O)CCCCCCC2=C[C@H](C)OC2=O)O1` (some centres undefined): the IC50 is 1000 nM in the assay with HeLa; 230 nM in the assay with SGC-7901; 37 nM in the assay on MCF7; 8.3 nM in assay [1]; 320 nM in assay [2].

For `CCCCCCCCCC[C@H](O)[C@H]1CC[C@H]([C@H]2CC[C@H]([C@H](O)CCCCCCCCCCCCC3=C[C@@H](C)OC3=O)O2)O1` [ISODESACETYLUVARICIN], the IC50 was found to be 13 nM with HeLa; 84 nM in the assay on SGC-7901; 21 nM with MCF7; 16 nM in assay [1]; 160 nM in assay [2].

For the compound `CCCCCCCCCC[C@@H](O)[C@@H]1CC[C@@H]([C@H](O)CC[C@@H](O)[C@@H]2CC[C@@H](CCCCCCCCCC3=C[C@@H](C)OC3=O)O2)O1` [Squamostatin-E], the IC50 in the assay on HeLa amounted to 270 nM; in the assay on SGC-7901, 210 nM; in the assay on MCF7, 900 nM; in assay [1] it was 180 nM; in assay [2], 130 nM.

Regarding `CCCCCC[C@H](O)CCC[C@H](O)[C@H]1CC[C@H]([C@H]2CC[C@H]([C@H](O)CCCCCCCCCCCCC3=C[C@H](C)OC3=O)O2)O1` [SQUAMOCIN], the IC50 with HeLa came out at 9.7 nM; with SGC-7901 it was 0.73 nM; with MCF7 it was 0.5 nM; in assay [1], 0.09 nM; in assay [2] it was 0.87 nM.

In the case of `CCCCCC[C@@H](O)CCC[C@@H](O)[C@@H]1CC[C@@H]([C@H](O)CC[C@@H](O)[C@@H]2CC[C@@H](CCCCCCCCCC3=C[C@@H](C)OC3=O)O2)O1` [Squamostatin-B], the IC50 turned out to be 380 nM in the assay on HeLa; 170 nM in the assay on SGC-7901; 730 nM in the assay on MCF7; 170 nM in assay [1]; 43 nM in assay [2].

As to `CCCCCC[C@@H](O)CCC[C@@H](O)[C@H]1CC[C@H]([C@H]2CC[C@H]([C@H](O)CCCCCCCCCCCCC3=C[C@@H](C)OC3=O)O2)O1` [Squamocin-D], the IC50 came to 24 nM with HeLa; 1.6 nM in the assay on SGC-7901; 2.8 nM with MCF7; 12 nM in assay [1]; 1.8 nM in assay [2].

Regarding `CCCCCC[C@@H](O)CCC[C@H](O)[C@@H]1CC[C@@H]([C@H](O)CC[C@@H](O)[C@@H]2CC[C@@H](CCCCCCCCCC3=C[C@@H](C)OC3=O)O2)O1` [Squamostatin-A], the half-maximal inhibitory concentration (IC50) in the assay on HeLa is 33 nM; with SGC-7901, 97 nM; in the assay on MCF7, 970 nM; in assay [1] it was 50 nM; in assay [2] it was 2.6 nM.

For `CCCCCCCCCC[C@@H](O)[C@H]1CC[C@H]([C@H]2CC[C@H]([C@H](O)CCCCCCCCCCCCC3=C[C@@H](C)OC3=O)O2)O1` [DEACETYLUVARICIN], the IC50 with HeLa worked out at 160 nM; in the assay on SGC-7901, 43 nM; in the assay with MCF7, 40 nM; in assay [1] it was 140 nM; in assay [2], 400 nM.

On to `CCCCCC[C@@H](O)CCC[C@H](O)[C@@H]1CC[C@@H]([C@H](O)CC[C@@H](O)[C@@H]2CC[C@H](CCCCCCCCCC3=C[C@@H](C)OC3=O)O2)O1`, for which the IC50 with HeLa was 1.3 nM; with SGC-7901, 93 nM; in the assay with MCF7, 3.3 nM; in assay [1], 60 nM; in assay [2], 16 nM.

The record behind these values is ChEMBL document CHEMBL1153975, “Structure-activity relationships of diverse annonaceous acetogenins against human tumor cells” (Bioorg Med Chem Lett, 2009).
